Measured values reported in PubChem BioAssay (NCI).
Several values for one entry are separate records, joined by “and”; a condition that tells them apart may be missing. Equal values may be shown once.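 Where inhibition never reached the appropriate level, the endpoint shown equals the highest concentration tested. Otherwise, values were interpolated linearly from a five-concentration, 48-hour dose response in 96-well plates. Abbreviation: GI50, concentration required for 50% inhibition of growth. The concentration for full growth arrest is given as TGI.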 Where a SMILES comes first, the peptide text is derived from it. Peptide text beside a SMILES is read from it. [ ]: non-standard residue; d: D form. The star is where a group is joined. * marks the point of attachment. Phe(4-NO2) = N[CH](Cc1ccc([N+](=O)[O-])cc1)C(=O)O; Boc = CC(C)(C)OC(=O)*; OtBu = CC(C)(C)O*

Tests used:
Test in all cases: DTP human tumour cell line panel, 48 h
[1] = tested on: A498 renal
[2] = tested on: EKVX NSCLC
[3] = tested on: HL-60(TB) leukemia
[4] = tested on: LOX IMVI melanoma
[5] = tested on: NCI/ADR-RES ovarian
[6] = tested on: OVCAR-4 ovarian
[7] = tested on: OVCAR-5 ovarian
[8] = tested on: RXF 393 renal
[9] = tested on: UACC-257 melanoma
[10] = tested on: UO-31 renal

Compound | TGI [1] | TGI [2] | TGI [3] | TGI [4] | TGI [5] | TGI [6] | TGI [7] | TGI [8] | TGI [9] | TGI [10] | GI50 [1] | GI50 [2] | GI50 [3] | GI50 [4] | GI50 [5] | GI50 [6] | GI50 [7] | GI50 [8] | GI50 [9] | GI50 [10]
O=C(Nc1ccccc1)N1N=C(c2ccccc2)C1c1ccccc1 (centres undefined) | 42.7 µM | > 100 µM | > 100 µM | 89.6 µM | 82.2 µM | > 100 µM | > 100 µM | 44.5 µM | > 100 µM | 69.6 µM | – | – | – | – | – | – | – | – | – | –
CSCCC(NC(=O)C(CC(C)C)NC(=O)CNC(=O)OC(C)(C)C)C(=O)N(C)C (stereo not drawn) (Boc-Gly-Leu-Met-NMe2; configuration not given here) | > 100 µM | > 100 µM | > 100 µM | > 100 µM | > 100 µM | > 100 µM | > 100 µM | > 100 µM | > 100 µM | > 100 µM | – | – | – | – | – | – | – | – | – | –
CC(=O)c1nccc2c1c(C)nc1ccccc12 | > 100 µM | > 100 µM | > 100 µM | > 100 µM | > 100 µM | > 100 µM | > 100 µM | > 100 µM | > 100 µM | > 100 µM | – | – | – | – | – | – | – | – | – | –
Cc1ccc(Nc2nnc3n2S(=O)(=O)c2cc(C)c(Cl)cc2S3)cc1 | 89.2 µM | 87.4 µM | 9.33 µM | 65.2 µM | 43.5 µM | > 100 µM | 74.8 µM | 49.1 µM | > 100 µM | 81.3 µM | – | – | – | – | – | – | – | – | – | –
CC(=O)c1c(O)c(C)c(O)c2c1OC1=CC(=O)C(C(C)=O)C(=O)C12C (centres undefined) | 0.412 µM and 0.742 µM | 17 µM and 48.2 µM | 8.9 µM and 43 µM | 33.3 µM and 37.9 µM | 13.5 µM and 55.7 µM | 61.3 µM and 35.1 µM | 50.4 µM and 84.6 µM | 22.8 µM and 43.8 µM | 22.7 µM and 64.5 µM | 7.08 µM and 53.6 µM | 232 nM and 507 nM | 4.39 µM and 20.3 µM | 3.15 µM and 16.4 µM | 5.53 µM and 12.6 µM | 4.05 µM and 16.7 µM | 5.28 µM and 9.79 µM | 17.1 µM and 38.1 µM | 5.72 µM and 19.2 µM | 6.02 µM and 30.4 µM | 1960 nM and 18200 nM
CC(C)[Si]1(C(C)C)OCC2OC(n3cnc4c(N)ncnc43)C(N)C2O[Si](C(C)C)(C(C)C)O1 (centres undefined) | 45.5 µM | > 66.9 µM | > 28.2 µM | 21.3 µM | 20.7 µM | > 100 µM | 67.6 µM | 27.1 µM | 32.4 µM | 27.6 µM | – | – | – | – | – | – | – | – | – | –
O=C(NCCCCl)c1c(O)c2ccccc2[nH]c1=O | > 100 µM | > 100 µM | > 100 µM | > 100 µM | > 100 µM | > 100 µM | > 100 µM | > 71.5 µM | > 100 µM | > 100 µM | – | – | – | – | – | – | – | – | – | –
CN(C)CCNc1nc2ccccc2c2c1C(=O)c1ccccc1-2 | 1.24 µM | 3.09 µM | 0.812 µM | 0.961 µM | 2.06 µM | 1.41 µM | 5.25 µM | 1.13 µM | 3.7 µM | 3.17 µM | – | – | – | – | – | – | – | – | – | –
COc1ccc(CC2C(=O)NC(C)C(=O)N(C)C3Cc4ccc(cc4)Oc4cc(ccc4O)CC(C(=O)NC(C)C(=O)NC(C)C(=O)N2C)N(C)C3=O)cc1 (centres undefined) | 0.0147 µM and 0.0709 µM | 0.144 µM and 0.0424 µM | – | – | 78.6 µM | 0.523 µM and 0.131 µM and 0.088 µM | 0.0305 µM and 0.0607 µM | 0.0731 µM | – | 5.75 µM and 4.16 µM | – | 0.00125 µM | < 0.0001 µM | < 0.0001 µM | 15.2 µM | < 0.0001 µM | – | – | < 0.0001 µM | 240 nM
COc1cc(C2S/C(=C/c3ccccc3)C(=O)N2c2ccc(Cl)cc2)cc(OC)c1OC (centres undefined) | > 100 µM | > 100 µM | 85 µM | 52.4 µM | > 100 µM | > 100 µM | > 100 µM | > 100 µM | > 100 µM | > 100 µM | – | – | – | – | – | – | – | – | – | –
c1csc(-c2ccc(-c3ccc(-c4cccs4)s3)s2)c1 | > 100 µM | > 100 µM | > 100 µM | > 100 µM | > 100 µM | > 100 µM | > 100 µM | > 100 µM | > 100 µM | > 100 µM | – | – | – | – | – | – | – | – | – | –
COc1ccc(C=O)cc1Oc1ccc(C[C@H]2c3c(cc(OC)c4c3Oc3cc5c(cc3O4)CCN(C)C5=O)CCN2C)cc1 | > 50 µM | 22.3 µM | 17.5 µM | 21.8 µM | 16.2 µM | 17.7 µM | 34.8 µM | 10.8 µM | 17.6 µM | 14.6 µM | – | – | – | – | – | – | – | – | – | –
O=C(O)CNC(=O)c1cccc2c(=O)c3ccccc3[nH]c12 | > 100 µM | > 100 µM | > 100 µM | > 100 µM | > 100 µM | > 100 µM | > 100 µM | > 100 µM | > 100 µM | > 100 µM | – | – | – | – | – | – | – | – | – | –
CC(=O)Nc1ncc2c(n1)-c1ccccc1OC2 | > 100 µM | > 100 µM | > 100 µM | > 100 µM | > 100 µM | > 100 µM | > 100 µM | > 100 µM | > 100 µM | > 100 µM | – | – | – | – | – | – | – | – | – | –
CSc1s[s+]c(SC)c1-c1ccccc1 | 47.3 µM | 33 µM | 60.6 µM | 52 µM | 42.1 µM | 17.9 µM | 31.2 µM | 30.4 µM | 27.8 µM | 46.3 µM | – | – | – | – | – | – | – | – | – | –
C=C1C(=O)C[C@@]23CCC[C@@]12CC(O)C3 (some centres undefined) | > 48.9 µM | > 73.5 µM | 49.9 µM | 31.3 µM | 42.8 µM | 36.2 µM | > 54.2 µM | 33.8 µM | 52.3 µM | > 94.6 µM | – | – | – | – | – | – | – | – | – | –
C/C(=N\O)c1ccc(Nc2c3ccccc3nc3occc23)cc1 | > 10 µM | > 50 µM | 6.95 µM | > 50 µM | 0.484 µM | > 12.2 µM | > 50 µM | 0.614 µM | > 44.6 µM | > 50 µM | – | – | – | – | – | – | – | – | – | –
Cc1nn(C(=O)c2ccccc2O)c2c1C(c1ccc(O)cc1)SC(N)=N2 (centres undefined) | > 10 µM | > 10 µM | > 4.33 µM | > 10 µM | > 10 µM | > 8.37 µM | > 10 µM | > 10 µM | > 10 µM | > 10 µM | – | – | – | – | – | – | – | – | – | –
CN(Cc1nc2c(N)nc(N)nc2nc1N)c1ccc(C(=O)NC(CCC(=O)O)C(=O)O)cc1 (centres undefined) | > 100 µM | > 100 µM | > 100 µM | > 100 µM | > 100 µM | > 100 µM | > 100 µM | > 100 µM | > 100 µM | > 100 µM | – | – | – | – | – | – | – | – | – | –
CC(C)CC1c2[nH]c3ccccc3c2C[C@H]2C(=O)NC(COC(C)(C)C)C(=O)N12 (some centres undefined) | > 100 µM | 71.7 µM | 53.4 µM | 34.7 µM | 56.7 µM | > 100 µM | 54.8 µM | 41 µM | 39.3 µM | > 100 µM | – | – | – | – | – | – | – | – | – | –
CC1=CC(c2ccccc2)n2c(nc3cc4ccccc4cc32)N1 (centres undefined) | > 100 µM | > 100 µM | > 100 µM | > 100 µM | > 100 µM | > 100 µM | > 100 µM | > 100 µM | > 100 µM | > 100 µM | – | – | – | – | – | – | – | – | – | –
O=C(O)c1ccccc1-c1ccccc1C(=O)c1ccccc1 | > 100 µM | > 100 µM | > 100 µM | > 100 µM | > 100 µM | > 100 µM | > 100 µM | > 100 µM | > 100 µM | > 100 µM | – | – | – | – | – | – | – | – | – | –
COC(=O)C(Cc1ccc([N+](=O)[O-])cc1)NC(=O)C(CC(=O)OC(C)(C)C)NC(=O)OC(C)(C)C (centres undefined) (Boc-Asp(OtBu)-[Phe(4-NO2)]-OMe; configuration not given here) | > 100 µM | > 100 µM | > 100 µM | 49 µM | > 100 µM | > 100 µM | > 100 µM | > 100 µM | > 100 µM | 29.6 µM | – | – | – | – | – | – | – | – | – | –
COC(=O)CCc1ccc2c(c1)CC1(C2)Cc2ccc(CCC(=O)OC)cc2C1 | > 100 µM | > 100 µM | 38.7 µM | 97.1 µM | > 100 µM | > 100 µM | > 100 µM | > 100 µM | > 100 µM | > 100 µM | – | – | – | – | – | – | – | – | – | –
COC1(OC)/C(=C(\N)C=O)NC(C)(C)N1O | > 100 µM | > 100 µM | 55.9 µM | > 100 µM | > 100 µM | > 100 µM | > 100 µM | > 100 µM | > 100 µM | > 100 µM | – | – | – | – | – | – | – | – | – | –
O=C(O)c1ccc(Nc2cnc3ccc(C(F)(F)F)cc3n2)cc1 | 42.9 µM | > 100 µM | 20.7 µM | 24.5 µM | > 100 µM | 40.7 µM | > 100 µM | 35.3 µM | 93.9 µM | 27.5 µM | – | – | – | – | – | – | – | – | – | –
CSC1(SC)CCCCCCCCCCC1 | > 100 µM | > 100 µM | > 100 µM | 36.4 µM | > 100 µM | > 100 µM | > 100 µM | > 100 µM | 74 µM | > 100 µM | – | – | – | – | – | – | – | – | – | –
C=C1c2nc3ccccc3n2C=C(c2ccccc2)N1c1ccc(OC)cc1 | > 100 µM | > 100 µM | > 100 µM | > 100 µM | 71.4 µM | > 100 µM | > 100 µM | 83.5 µM | > 100 µM | 26.6 µM | – | – | – | – | – | – | – | – | – | –
CCC1(O)CN(CCOC)[C@H]2C[C@@H]1C(=O)c1[nH]c3ccccc3c12 (some centres undefined) | > 100 µM | > 100 µM | > 100 µM | > 100 µM | > 100 µM | > 100 µM | > 100 µM | > 100 µM | > 100 µM | > 100 µM | – | – | – | – | – | – | – | – | – | –
COc1ccc([C@@]23CCC(=O)C[C@@H]2N(C)CC3)cc1OC | > 100 µM | > 100 µM | > 100 µM | > 100 µM | > 100 µM | > 100 µM | > 100 µM | > 100 µM | > 100 µM | > 100 µM | – | – | – | – | – | – | – | – | – | –
